Patent publication US8202885B2, “Bridged six-membered ring compounds” (Actelion Pharmaceuticals Ltd., priority 2007, dated 2012)

tested on: human Cav3.1 Cav3.2 or Cav3.3 channel; experiment: In vitro assay T channel (FLIPR calcium fluorescence); type: cell-based; settings: HEK293 cells expressing human Cav3.1, Cav3.2 or Cav3.3; 10 mM Ca2+-induced fluo-4 fluorescence; determined up to 10 μM; read-out: T channel antagonistic activity IC50
Method: The T channel antagonistic activity (IC50 values) of the compounds of formula (I) is determined in accordance with the following experimental method and data are shown in Table 1.
Human embryonic kidney (HEK293) cells expressing the human Cav3.1 Cav3.2 or Cav3.3 channel, respectively, are grown in culture medium (DMEM containing 10% heat-inactivated fetal calf serum (FCS), 100 U/ml penicillin, 100 μg/ml streptomycin and 1 mg/ml G418). The cells are seeded at 20.000 cells/well into 384-well black clear bottom sterile plates (poly-L-lysine-coated, Becton Dickinson). The seeded plates are incubated overnight at 37° C. in 5% CO2. The Ca^2+ solution is prepared as 100 mM stock solution in 100 mM tetraethylammoniumchloride (TEA-chloride), 50 mM HEPES, 2.5 mM CaCl2, 5 mM KCl, 1 mM MgCl2, adjusted to pH 7.2 with TEA-hydroxide, for use in the assay at a final concentration of 10 mM. Antagonists are prepared as 10 mM stock solutions in DMSO, then diluted in 384 w plates first in DMSO, then in 100 mM TEA-chloride, 50 mM HEPES, 2.5 mM CaCl2, 5 mM KCl, 1 mM MgCl2, adjusted to pH 7.2 with TEA-hydroxide, to obtain 9× stocks. On the day of the assay, 25 μl of staining buffer (HBSS containing 20 mM HEPES, 0.375 g/l NaHCO3 and 3 μM of the fluorescent calcium indicator fluo-4 AM (1 mM stock solution in DMSO, containing 10% pluronic) is added to each well of the seeded plate. The 384-well cell-plates are incubated for 60 min at 37° C. in 5% CO2 followed by washing with 2×50 μl per well using HBSS containing 0.1% BSA, 20 mM HEPES, 0.375 g/l NaHCO3, leaving 50 […] of this buffer for equilibration at room temperature (30-60 min). Within the Fluorescent Imaging Plate Reader (FLIPR, Molecular Devices), antagonists are added to the plate in a volume of 6.25 μl/well, incubated for 3 min, and finally 6.25 […] of Ca^2+ solution is added. Fluorescence is measured for each well at 2 second intervals for 8 minutes, and the area under the curve of each fluorescence peak is compared to the area of the fluorescence peak induced by 10 mM Ca^2+ with vehicle in place of antagonist. For each antagonist, the IC50 value (the concentration (in nM) of compound needed to inhibit 50% of the Ca^2+-induced fluorescence response) up to 10 μM is determined.

Row | SMILES | IC50 [µM]
1 | CN(CCCc1nc2ccccc2[nH]1)CC[C@]1(O)C[C@H]2CC[C@@H]1C=C2c1ccc2ccccc2c1 (relative stereo) [Example 10, rac-(1R*,2R*,4R*)-2-(2-{[3-(1H-Benzoimidazol-2-yl)-propyl]-methyl-amino}-ethyl)-5-naphthalen-2-yl-bicyclo[2.2.2]oct-5-en-2-ol] | 5.87
2 | CN(CCc1nc2ccccc2[nH]1)CC[C@]1(O)C[C@H]2CC[C@@H]1C=C2c1ccccc1 (relative stereo) [Example 13, rac-(1R*,2R*,4R*)-2-(2-{[2-(1H-Benzoimidazol-2-yl)-ethyl]-methyl-amino}-ethyl)-5-phenyl-bicyclo[2.2.2]oct-5-en-2-ol] | 2.73
3 | CC(C)C(=O)O[C@@]1(CCN(C)CCc2nc3ccccc3[nH]2)C[C@H]2CC[C@@H]1C=C2c1ccccc1 (relative stereo) [Example 13A, rac-Isobutyric acid (1R*,2R*,4R*)-2-(2-{[2-(1H-benzoimidazol-2-yl)-ethyl]-methyl-amino}-ethyl)-5-phenyl-bicyclo[2.2.2]oct-5-en-2-yl ester] | 4.34
4 | CN(CC[C@]1(O)C[C@H]2CC[C@@H]1C=C2c1ccccc1)Cc1nc2ccccc2[nH]1 (relative stereo) [Example 14, rac-(1R*,2R*,4R*)-2-{2-[(1H-Benzoimidazol-2-ylmethyl)-methyl-amino]-ethyl}-5-phenyl-bicyclo[2.2.2]oct-5-en-2-ol] | 8.95
5 | CC(C)C(=O)O[C@@]1(CCN(C)Cc2nc3ccccc3[nH]2)C[C@H]2CC[C@@H]1C=C2c1ccccc1 (relative stereo) [Example 14A, rac-Isobutyric acid (1R*,2R*,4R*)-2-{2-[(1H-benzoimidazol-2-ylmethyl)-methyl-amino]-ethyl}-5-phenyl-bicyclo[2.2.2]oct-5-en-2-yl ester] | 3.18
6 | CN(CCCc1ccccc1)CC[C@]1(O)C[C@H]2CC[C@@H]1C=C2c1ccccc1 (relative stereo) [Example 15, rac-(1R*,2R*,4R*)-2-{2-[Methyl-(3-phenyl-propyl)-amino]-ethyl}-5-phenyl-bicyclo[2.2.2]oct-5-en-2-ol] | > 10
7 | CC(C)C(=O)O[C@@]1(CCN(C)CCCc2ccccc2)C[C@H]2CC[C@@H]1C=C2c1ccccc1 (relative stereo) [Example 15A, rac-Isobutyric acid (1R*,2R*,4R*)-2-{2-[methyl-(3-phenyl-propyl)-amino]-ethyl}-5-phenyl-bicyclo[2.2.2]oct-5-en-2-yl ester] | 8.63
8 | CCCC1=C(C)[C@H]2CC[C@@H]1C[C@@]2(O)CCN(C)CCCc1nc2ccccc2[nH]1 (relative stereo) [Example 16, rac-(1R*,2R*,4R*)-2-(2-{[3-(1H-Benzoimidazol-2-yl)-propyl]-methyl-amino}-ethyl)-6-methyl-5-propyl-bicyclo[2.2.2]oct-5-en-2-ol] | 5.69
9 | CCCC1=C(C)[C@H]2CC[C@@H]1C[C@]2(CCN(C)CCCc1nc2ccccc2[nH]1)OC(=O)C(C)C (relative stereo) [Example 16A, rac-Isobutyric acid (1R*,2R*,4R*)-2-(2-{[3-(1H-benzoimidazol-2-yl)-propyl]-methyl-amino}-ethyl)-6-methyl-5-propyl-bicyclo[2.2.2]oct-5-en-2-yl ester] | 2.39

The remaining lines, values ahead:

Row | IC50 [µM] | SMILES
10 | 1.26 | CC1=C(c2ccccc2)[C@H]2CC[C@@H]1C[C@@]2(O)CCN(C)CCCc1nc2ccccc2[nH]1 (relative stereo) [Example 17, rac-(1R*,2R*,4R*)-2-(2-{[3-(1H-Benzoimidazol-2-yl)-propyl]-methyl-amino}-ethyl)-5-methyl-6-phenyl-bicyclo[2.2.2]oct-5-en-2-ol]
11 | 0.751 | CC1=C(c2ccccc2)[C@H]2CC[C@@H]1C[C@]2(O)CCN(C)CCCc1nc2ccccc2[nH]1 (relative stereo) [Example 17B, rac-(1R*,2S*,4R*)-2-(2-{[3-(1H-Benzoimidazol-2-yl)-propyl]-methyl-amino}-ethyl)-5-methyl-6-phenyl-bicyclo[2.2.2]oct-5-en-2-ol]
12 | 0.55 | CC1=C(c2ccccc2)[C@H]2CC[C@@H]1C[C@@]2(CCN(C)CCCc1nc2ccccc2[nH]1)OC(=O)C(C)C (relative stereo) [Example 17C, rac-Isobutyric acid (1R*,2S*,4R*)-2-(2-{[3-(1H-benzoimidazol-2-yl)-propyl]-methyl-amino}-ethyl)-5-methyl-6-phenyl-bicyclo[2.2.2]oct-5-en-2-yl ester]
13 | 1.57 | COC(=O)c1cccc2[nH]c(CCCN(C)CC[C@]3(O)C[C@H]4CC[C@@H]3C=C4c3ccccc3)nc12 (relative stereo) [Example 19, rac-2-(3-{[2-((1R*,2R*,4R*)-2-Hydroxy-5-phenyl-bicyclo[2.2.2]oct-5-en-2-yl)-ethyl]-methyl-amino}-propyl)-1H-benzoimidazole-4-carboxylic acid methyl ester]
14 | 1.71 | COC(=O)c1cccc2[nH]c(CCCN(C)CC[C@]3(OC(=O)C(C)C)C[C@H]4CC[C@@H]3C=C4c3ccccc3)nc12 (relative stereo) [Example 19A, rac-2-(3-{[2-((1R*,2R*,4R*)-2-Isobutyryloxy-5-phenyl-bicyclo[2.2.2]oct-5-en-2-yl)-ethyl]-methyl-amino}-propyl)-1H-benzoimidazole-4-carboxylic acid methyl ester]
15 | > 10 | COC(=O)c1ccc2[nH]c(CCCN(C)CC[C@]3(O)C[C@H]4CC[C@@H]3C=C4c3ccccc3)nc2c1 (relative stereo) [Example 20, rac-2-(3-{[2-((1R*,2R*,4R*)-2-Hydroxy-5-phenyl-bicyclo[2.2.2]oct-5-en-2-yl)-ethyl]-methyl-amino}-propyl)-1H-benzoimidazole-5-carboxylic acid methyl ester]
16 | 4.57 | COC(=O)c1ccc2[nH]c(CCCN(C)CC[C@]3(OC(=O)C(C)C)C[C@H]4CC[C@@H]3C=C4c3ccccc3)nc2c1 (relative stereo) [Example 20A, rac-2-(3-{[2-((1R*,2R*,4R*)-2-Isobutyryloxy-5-phenyl-bicyclo[2.2.2]oct-5-en-2-yl)-ethyl]-methyl-amino}-propyl)-1H-benzoimidazole-5-carboxylic acid methyl ester]
17 | 3.47 | CN(CCCc1nc2ccccc2[nH]1)CC[C@]1(O)C[C@H]2CC[C@@H]1C=C2c1cccs1 (relative stereo) [Example 21, rac-(1R*,2R*,4R*)-2-(2-{[3-(1H-Benzoimidazol-2-yl)-propyl]-methyl-amino}-ethyl)-5-thiophen-2-yl-bicyclo[2.2.2]oct-5-en-2-ol]
18 | 6.93 | COc1ccc(C2=C[C@H]3CC[C@@H]2C[C@]3(CCN(C)CCCc2nc3ccccc3[nH]2)OC(=O)C(C)C)cc1 (relative stereo) [Example 22A, rac-Isobutyric acid (1R*,2R*,4R*)-2-(2-{[3-(1H-benzoimidazol-2-yl)-propyl]-methyl-amino}-ethyl)-5-(4-methoxy-phenyl)-bicyclo[2.2.2]oct-5-en-2-yl ester]
19 | 4.01 | COc1ccccc1C1=C[C@H]2CC[C@@H]1C[C@]2(CCN(C)CCCc1nc2ccccc2[nH]1)OC(=O)C(C)C (relative stereo) [Example 23A, rac-Isobutyric acid (1R*,2R*,4R*)-2-(2-{[3-(1H-benzoimidazol-2-yl)-propyl]-methyl-amino}-ethyl)-5-(2-methoxy-phenyl)-bicyclo[2.2.2]oct-5-en-2-yl ester]
20 | > 10 | CN(CCCc1nc2ccccc2[nH]1)CC[C@]1(O)C[C@H]2CC[C@@H]1C=C2c1nccs1 (relative stereo) [Example 24, rac-(1R*,2R*,4R*)-2-(2-{[3-(1H-Benzoimidazol-2-yl)-propyl]-methyl-amino}-ethyl)-5-thiazol-2-yl-bicyclo[2.2.2]oct-5-en-2-ol]
21 | 2.75 | CC(C)C(=O)O[C@@]1(CCN(C)CCCc2nc3ccccc3[nH]2)C[C@H]2CC[C@@H]1C=C2c1nccs1 (relative stereo) [Example 24A, rac-Isobutyric acid (1R*,2R*,4R*)-2-(2-{[3-(1H-benzoimidazol-2-yl)-propyl]-methyl-amino}-ethyl)-5-thiazol-2-yl-bicyclo[2.2.2]oct-5-en-2-yl ester]
22 | 1.59 | CC(C)C(=O)O[C@@]1(CCN(C)CCCc2nc3ccccc3[nH]2)C[C@H]2CC[C@@H]1C=C2c1ncco1 (relative stereo) [Example 25A, rac-Isobutyric acid (1R*,2R*,4R*)-2-(2-{[3-(1H-benzoimidazol-2-yl)-propyl]-methyl-amino}-ethyl)-5-oxazol-2-yl-bicyclo[2.2.2]oct-5-en-2-yl ester]
